The target in one assay is orexin-1 (Homo sapiens (Human), UniProt O43613). The assay is described as follows: Intracellular calcium measurement (FLIPR), CHO cells expressing human orexin-1 receptor, 3 nM orexin-A. The assay is classed as cell-based. As to conditions: read-out: IC50 OX1. The method in brief:
(§1)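 CHO transfectants were dye-loaded (fluo-4 AM, probenecid) and exposed to antagonist for 120 min ahead of agonist.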

Another assay addresses human orexin-2 receptor (Homo sapiens (Human), UniProt O43614). As to the kind of experiment: Intracellular calcium measurement (FLIPR), CHO cells expressing human orexin-2 receptor, 3 nM orexin-A. Format: cell-based. To be noted: read-out: IC50 OX2. The gist of the method: as §1
Where [1] appears, read: CHO cells expressing human orexin-2 receptor, FLIPR, 3 nM orexin-A, geometric mean if determined several times.
Where [2] appears, read: CHO cells expressing human orexin-1 receptor, FLIPR, 3 nM orexin-A, geometric mean if determined several times.

This passage reports IC50 results from patent US9493446B2, “Orexin receptor antagonists which are [ortho bi-(hetero-)aryl]-[2-(meta bi-(hetero-)aryl)-pyrrolidin-1-yl]-methanone derivatives” (Actelion Pharmaceuticals Ltd, priority 2012, dated 2016).

Where two headings read alike, the source gives them in different places.

Sequence of orexin-1 (O43613 whole entry): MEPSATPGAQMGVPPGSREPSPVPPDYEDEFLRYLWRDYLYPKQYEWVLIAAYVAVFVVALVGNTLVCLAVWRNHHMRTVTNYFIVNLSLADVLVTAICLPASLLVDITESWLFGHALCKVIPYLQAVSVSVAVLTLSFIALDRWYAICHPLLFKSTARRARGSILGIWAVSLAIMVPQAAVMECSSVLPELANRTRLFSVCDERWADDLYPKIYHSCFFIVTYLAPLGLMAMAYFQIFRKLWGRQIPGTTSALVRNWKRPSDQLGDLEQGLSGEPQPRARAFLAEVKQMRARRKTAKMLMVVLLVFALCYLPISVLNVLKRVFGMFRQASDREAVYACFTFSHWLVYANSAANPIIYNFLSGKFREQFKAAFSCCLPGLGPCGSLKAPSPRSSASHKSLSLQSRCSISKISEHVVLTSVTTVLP
Sequence of human orexin-2 receptor (O43614 whole entry): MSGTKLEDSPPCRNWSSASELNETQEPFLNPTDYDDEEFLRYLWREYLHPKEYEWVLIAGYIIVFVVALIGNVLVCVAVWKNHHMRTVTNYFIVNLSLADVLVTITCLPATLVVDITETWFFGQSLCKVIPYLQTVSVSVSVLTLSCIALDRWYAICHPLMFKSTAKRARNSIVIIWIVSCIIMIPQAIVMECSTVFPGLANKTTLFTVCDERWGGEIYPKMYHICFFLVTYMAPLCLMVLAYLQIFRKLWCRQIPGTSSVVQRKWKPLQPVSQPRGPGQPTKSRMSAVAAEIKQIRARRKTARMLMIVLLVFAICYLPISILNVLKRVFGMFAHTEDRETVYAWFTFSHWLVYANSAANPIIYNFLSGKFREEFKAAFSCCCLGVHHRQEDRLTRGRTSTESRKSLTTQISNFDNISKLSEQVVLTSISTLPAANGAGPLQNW

Take `O=C(c1cc(Cl)ccc1-n1nccn1)N1CCC[C@H]1c1nc(-c2ccccc2C(F)(F)F)no1` [compound 179]: the results for the IC50 at orexin-1 and at human orexin-2 receptor (setting [1]) were 371 nM and 189 nM, respectively.
Turning to `Cc1ccc(C(=O)N2CCC[C@H]2c2nc(-c3ccccc3C(F)(F)F)no2)c(-n2nccn2)c1` [compound 180, (4-Methyl-2-[1,2,3]triazol-2-yl-phenyl)-{(S)-2-[3-(2-trifluoromethyl-phenyl)-[1,2,4]oxadiazol-5-yl]-pyrrolidin-1-yl}-methanone], the IC50 on orexin-1 (setting [2]) is 183 nM; on human orexin-2 receptor (setting [1]), 126 nM.
As for `Cc1cc(C(=O)N2CCC[C@H]2c2nc(-c3ccccc3C(F)(F)F)no2)c(-n2nccn2)cc1C` [compound 181, (4,5-Dimethyl-2-[1,2,3]triazol-2-yl-phenyl)-{(S)-2-[3-(2-trifluoromethyl-phenyl)-[1,2,4]oxadiazol-5-yl]-pyrrolidin-1-yl}-methanone], the IC50 at orexin-1 (setting [2]) was found to be 86 nM; on human orexin-2 receptor (setting [1]), 37 nM.
For `COc1cc(C(=O)N2CCC[C@H]2c2nc(-c3ccccc3C(F)(F)F)no2)c(-n2nccn2)cc1C` [compound 182, (5-Methoxy-4-methyl-2-[1,2,3]triazol-2-yl-phenyl)-{(S)-2-[3-(2-trifluoromethyl-phenyl)-[1,2,4]oxadiazol-5-yl]-pyrrolidin-1-yl}-methanone], in that order: 276 nM and 29 nM.
For `O=C(c1cccc(F)c1-c1ccn[nH]1)N1CCC[C@H]1c1nc(-c2ccccc2C(F)(F)F)no1` [compound 183, [3-Fluoro-2-(2H-pyrazol-3-yl)-phenyl]-{(S)-2-[3-(2-trifluoromethyl-phenyl)-[1,2,4]oxadiazol-5-yl]-pyrrolidin-1-yl}-methanone], in that order: 190 nM and 91 nM.
For `Cc1ccc(-c2ccccn2)c(C(=O)N2CCC[C@H]2c2nc(-c3ccccc3C(F)(F)F)no2)c1` [compound 184, (5-Methyl-2-pyridin-2-yl-phenyl)-{(S)-2-[3-(2-trifluoromethyl-phenyl)-[1,2,4]oxadiazol-5-yl]-pyrrolidin-1-yl}-methanone], in that order: 311 nM and 133 nM.
Consider `O=C(c1ccccc1-n1nccn1)N1CCC[C@H]1c1nc(-c2ccccc2OC(F)F)no1` [compound 185, {(S)-2-[3-(2-Difluoromethoxy-phenyl)-[1,2,4]oxadiazol-5-yl]-pyrrolidin-1-yl}-(2-[1,2,3]triazol-2-yl-phenyl)-methanone], for which the IC50 at orexin-1 (setting [2]) amounted to 523 nM; at human orexin-2 receptor (setting [1]), 75 nM.
With `O=C(c1cc(Cl)ccc1-n1nccn1)N1CCC[C@H]1c1nc(-c2ccccc2OC(F)F)no1` [compound 186], the results for the IC50 on orexin-1 (setting [2]) and on human orexin-2 receptor (setting [1]) were 138 nM and 17 nM, respectively.
Regarding `Cc1ccc(C(=O)N2CCC[C@H]2c2nc(-c3ccccc3OC(F)F)no2)c(-n2nccn2)c1` [compound 187, {(S)-2-[3-(2-Difluoromethoxy-phenyl)-[1,2,4]oxadiazol-5-yl]-pyrrolidin-1-yl}-(4-methyl-2-[1,2,3]triazol-2-yl-phenyl)-methanone], the IC50 at orexin-1 (setting [2]) worked out at 79 nM; on human orexin-2 receptor (setting [1]), 31 nM.
For `Cc1cc(C(=O)N2CCC[C@H]2c2nc(-c3ccccc3OC(F)F)no2)c(-n2nccn2)cc1C` [compound 188, {(S)-2-[3-(2-Difluoromethoxy-phenyl)-[1,2,4]oxadiazol-5-yl]-pyrrolidin-1-yl}-(4,5-dimethyl-2-[1,2,3]triazol-2-yl-phenyl)-methanone], in that order: 20 nM and 3 nM.
For `COc1cc(C(=O)N2CCC[C@H]2c2nc(-c3ccccc3OC(F)F)no2)c(-n2nccn2)cc1C` [compound 189, {(S)-2-[3-(2-Difluoromethoxy-phenyl)-[1,2,4]oxadiazol-5-yl]-pyrrolidin-1-yl}-(5-methoxy-4-methyl-2-[1,2,3]triazol-2-yl-phenyl)-methanone], in that order: 47 nM and 5 nM.
`O=C(c1cccc(F)c1-c1ccn[nH]1)N1CCC[C@H]1c1nc(-c2ccccc2OC(F)F)no1` [compound 190, {(S)-2-[3-(2-Difluoromethoxy-phenyl)-[1,2,4]oxadiazol-5-yl]-pyrrolidin-1-yl}-[3-fluoro-2-(2H-pyrazol-3-yl)-phenyl]-methanone]: the IC50 was 53 nM at orexin-1 (setting [2]) and 14 nM at human orexin-2 receptor (setting [1]).
On to `Cc1ccc(-c2ccccn2)c(C(=O)N2CCC[C@H]2c2nc(-c3ccccc3OC(F)F)no2)c1` [compound 191, {(S)-2-[3-(2-Difluoromethoxy-phenyl)-[1,2,4]oxadiazol-5-yl]-pyrrolidin-1-yl}-(5-methyl-2-pyridin-2-yl-phenyl)-methanone], for which the IC50 on orexin-1 (setting [2]) was determined as 119 nM; at human orexin-2 receptor (setting [1]), 27 nM.
`COc1c(F)cccc1-c1noc([C@@H]2CCCN2C(=O)c2cc(C)cc(C)c2-n2nccn2)n1` [compound 192, (3,5-Dimethyl-2-[1,2,3]triazol-2-yl-phenyl)-{(S)-2-[3-(3-fluoro-2-methoxy-phenyl)-[1,2,4]oxadiazol-5-yl]-pyrrolidin-1-yl}-methanone]: the IC50 worked out at 135 nM at orexin-1 (setting [2]) and 15 nM on human orexin-2 receptor (setting [1]).
Turning to `COc1c(F)cccc1-c1noc([C@@H]2CCCN2C(=O)c2ccccc2-n2nccn2)n1` [compound 193, {(S)-2-[3-(3-Fluoro-2-methoxy-phenyl)-[1,2,4]oxadiazol-5-yl]-pyrrolidin-1-yl}-(2-[1,2,3]triazol-2-yl-phenyl)-methanone], the IC50 on orexin-1 (setting [2]) was found to be 263 nM; at human orexin-2 receptor (setting [1]), 25 nM.
For `COc1c(F)cccc1-c1noc([C@@H]2CCCN2C(=O)c2ccc(C)cc2-n2nccn2)n1` [compound 195, {(S)-2-[3-(3-Fluoro-2-methoxy-phenyl)-[1,2,4]oxadiazol-5-yl]-pyrrolidin-1-yl}-(4-methyl-2-[1,2,3]triazol-2-yl-phenyl)-methanone], in that order: 71 nM and 11 nM.
For `COc1c(F)cccc1-c1noc([C@@H]2CCCN2C(=O)c2cc(C)c(C)cc2-n2nccn2)n1` [compound 196, (4,5-Dimethyl-2-[1,2,3]triazol-2-yl-phenyl)-{(S)-2-[3-(3-fluoro-2-methoxy-phenyl)-[1,2,4]oxadiazol-5-yl]-pyrrolidin-1-yl}-methanone], in that order: 10 nM and 2 nM.
On to `COc1c(F)cccc1-c1noc([C@@H]2CCCN2C(=O)c2cccc(C)c2-n2nccn2)n1` [compound 197, {(S)-2-[3-(3-Fluoro-2-methoxy-phenyl)-[1,2,4]oxadiazol-5-yl]-pyrrolidin-1-yl}-(3-methyl-2-[1,2,3]triazol-2-yl-phenyl)-methanone], for which the IC50 on orexin-1 (setting [2]) was found to be 354 nM; at human orexin-2 receptor (setting [1]) it was 93 nM.
`COc1ccc(-n2nccn2)c(C(=O)N2CCC[C@H]2c2nc(-c3cccc(F)c3OC)no2)c1` [compound 199, {(S)-2-[3-(3-Fluoro-2-methoxy-phenyl)-[1,2,4]oxadiazol-5-yl]-pyrrolidin-1-yl}-(5-methoxy-2-[1,2,3]triazol-2-yl-phenyl)-methanone]: the half-inhibitory concentration (IC50) at orexin-1 (setting [2]) stood at 83 nM; at human orexin-2 receptor (setting [1]) it was 12 nM.
In the case of `COc1c(F)cccc1-c1noc([C@@H]2CCCN2C(=O)c2cc(F)ccc2-n2nccn2)n1` [compound 200, {(S)-2-[3-(3-Fluoro-2-methoxy-phenyl)-[1,2,4]oxadiazol-5-yl]-pyrrolidin-1-yl}-(5-fluoro-2-[1,2,3]triazol-2-yl-phenyl)-methanone], the IC50 on orexin-1 (setting [2]) stood at 307 nM; on human orexin-2 receptor (setting [1]), 32 nM.
For `COc1cc(C(=O)N2CCC[C@H]2c2nc(-c3cccc(F)c3OC)no2)c(-n2nccn2)cc1C` [compound 201, {(S)-2-[3-(3-Fluoro-2-methoxy-phenyl)-[1,2,4]oxadiazol-5-yl]-pyrrolidin-1-yl}-(5-methoxy-4-methyl-2-[1,2,3]triazol-2-yl-phenyl)-methanone], in that order: 27 nM and 2 nM.
As for `COc1c(F)cccc1-c1noc([C@@H]2CCCN2C(=O)c2cccc(F)c2-c2ccn[nH]2)n1` [compound 202, {(S)-2-[3-(3-Fluoro-2-methoxy-phenyl)-[1,2,4]oxadiazol-5-yl]-pyrrolidin-1-yl}-[3-fluoro-2-(2H-pyrazol-3-yl)-phenyl]-methanone], the IC50 is 53 nM at orexin-1 (setting [2]) and 10 nM at human orexin-2 receptor (setting [1]).
Consider `COc1c(F)cccc1-c1noc([C@@H]2CCCN2C(=O)c2cc(C)ccc2-c2ccccn2)n1` [compound 203, {(S)-2-[3-(3-Fluoro-2-methoxy-phenyl)-[1,2,4]oxadiazol-5-yl]-pyrrolidin-1-yl}-(5-methyl-2-pyridin-2-yl-phenyl)-methanone], for which the IC50 on orexin-1 (setting [2]) was found to be 56 nM; at human orexin-2 receptor (setting [1]), 16 nM.
As for `COc1c(F)cccc1-c1noc([C@@H]2CCCN2C(=O)c2ccc(Cl)cc2-n2nccn2)n1` [compound 204], the results for the IC50 at orexin-1 (setting [2]) and on human orexin-2 receptor were 65 nM and 10 nM, respectively.
As to `COc1c(F)cccc1-c1noc([C@@H]2CCCN2C(=O)c2ccc(C(F)(F)F)cc2-n2nccn2)n1` [compound 205, {(S)-2-[3-(3-Fluoro-2-methoxy-phenyl)-[1,2,4]oxadiazol-5-yl]-pyrrolidin-1-yl}-(2-[1,2,3]triazol-2-yl-4-trifluoromethyl-phenyl)-methanone], the half-maximal inhibitory concentration (IC50) came out at 340 nM on orexin-1 (setting [2]) and 43 nM at human orexin-2 receptor (setting [1]).
For `COc1cc(C(=O)N2CCC[C@H]2c2nc(-c3cccc(F)c3OC)no2)c(-n2nccn2)cc1F` [compound 206, {(S)-2-[3-(3-Fluoro-2-methoxy-phenyl)-[1,2,4]oxadiazol-5-yl]-pyrrolidin-1-yl}-(4-fluoro-5-methoxy-2-[1,2,3]triazol-2-yl-phenyl)-methanone], in that order: 409 nM and 10 nM.
For `COc1c(F)cccc1-c1noc([C@@H]2CCCN2C(=O)c2cc(F)cc(C)c2-n2nccn2)n1` [compound 207, {(S)-2-[3-(3-Fluoro-2-methoxy-phenyl)-[1,2,4]oxadiazol-5-yl]-pyrrolidin-1-yl}-(5-fluoro-3-methyl-2-[1,2,3]triazol-2-yl-phenyl)-methanone], in that order: 1810 nM and 565 nM.
